Reference: PubChem BioAssay (NCI)
Values joined by “and” are separate entries in the source; they are usually repeats but may differ in a detail not shown here. Identical values can stand only once.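 Protocol summary: plate cells (96-well), add compound at 5 concentrations, incubate 48 h, interpolate endpoints linearly. GI50 = concentration required for 50% inhibition of growth. At the TGI there is no net growth.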

What was measured:
Assay in all cases: inhibition of tumour cell growth, NCI panel, 48 h
SF-539 CNS = test system: SF-539 CNS
MDA-N = test system: MDA-N
BT-549 breast = test system: BT-549 breast
HS 578T breast = test system: HS 578T breast
SNB-19 CNS = test system: SNB-19 CNS
MCF7 breast = test system: MCF7 breast
T-47D breast = test system: T-47D breast
RXF 393 renal = test system: RXF 393 renal
786-0 renal = test system: 786-0 renal
DU-145 prostate = test system: DU-145 prostate
PC-3 prostate = test system: PC-3 prostate
MDA-MB-435 = test system: MDA-MB-435

Compound	TGI (SF-539 CNS)	TGI (MDA-N)	TGI (BT-549 breast) [µM]	TGI (HS 578T breast)	TGI (SNB-19 CNS)	TGI (MCF7 breast) [µM]	TGI (T-47D breast)	TGI (RXF 393 renal)	TGI (786-0 renal)	TGI (DU-145 prostate)	TGI (PC-3 prostate)	TGI (MDA-MB-435)	GI50 (SF-539 CNS) [µM]	GI50 (BT-549 breast) [µM]	GI50 (SNB-19 CNS) [µM]	GI50 (MCF7 breast) [µM]	GI50 (T-47D breast) [µM]	GI50 (DU-145 prostate) [µM]	GI50 (MDA-MB-435) [µM]
Cc1ccc([N+](=O)[O-])cc1S(=O)(=O)Nc1ccc(C2=NOC(c3ccccc3O)C2)cc1 (configuration not stated)	> 100 µM	4.17 µM	60.3	> 100 µM	17.7 µM	14	> 100 µM	11.1 µM	> 100 µM	> 100 µM	> 100 µM	3.22 µM	–	–	–	–	–	–	–
CCO[C@]12CCC[C@H]1[C@@H]1C(=O)c3ccccc3C(=O)C1=C(C)O2	> 100 µM	43 µM	–	> 100 µM	> 100 µM	35.8	> 100 µM	56.4 µM	> 100 µM	> 100 µM	> 100 µM	> 100 µM	–	–	–	–	–	–	–
O=C(NC(Cc1ccc(I)cc1)C(=O)O)c1ccc(Cl)cc1 (configuration not stated)	> 100 µM	–	–	–	> 100 µM	> 100	–	–	–	–	–	–	–	–	–	–	–	–	–
NCCNCCNc1ccc(NCCNCCN)c2c1C(=O)c1c(O)ccc(O)c1C2=O	> 100 µM	> 100 µM	> 100	> 100 µM	> 100 µM	> 100	–	> 100 µM	> 100 µM	> 100 µM	> 100 µM	> 100 µM	–	–	–	–	–	–	–
CNC(C)Cc1ccccc1OC (configuration not stated)	> 100 µM	–	–	–	> 100 µM	–	–	> 100 µM	> 100 µM	–	–	–	–	–	–	–	–	–	–
c1c2c(cc3c1OCO3)-c1cc3ccc4c(c3c[n+]1CC2)OCO4	3.12 µM	0.595 µM	> 12.5	> 12.5 µM	> 8.78 µM	> 12.5	> 12.5 µM	> 12.5 µM	> 10.1 µM	> 12.5 µM	> 12.5 µM	0.865 µM	–	–	–	–	–	–	–
C[N+](C)(C)CCN[N+]1(C)CCCc2ccccc21 (configuration not stated)	> 100 µM	> 100 µM	> 100	> 100 µM	> 100 µM	> 100	> 100 µM	> 100 µM	> 100 µM	> 100 µM	> 100 µM	> 100 µM	–	–	–	–	–	–	–
CC1CC(Br)C(=O)O1 (configuration not stated)	> 100 µM	> 100 µM	> 100	> 100 µM	> 100 µM	> 100	> 100 µM	> 100 µM	–	> 100 µM	> 100 µM	> 100 µM	–	–	–	–	–	–	–
COC(=O)/C=C1\CCCN1CCc1cc2c(cc1CC#N)OCO2	> 100 µM	45.6 µM	> 100	> 100 µM	> 100 µM	> 100	> 100 µM	> 100 µM	> 100 µM	> 100 µM	> 100 µM	45.1 µM	–	–	–	–	–	–	–
Oc1ccc(-c2nc3cc(F)ccc3s2)cc1	–	79.4 µM	60.6	–	> 100 µM	28.5	33.7 µM	71.9 µM	92.6 µM	41.3 µM	60 µM	43.1 µM	–	–	–	–	–	–	–
O=C1OC2(OC2c2ccc(Cl)cc2)c2ccccc21 (configuration not stated)	> 100 µM	–	–	–	> 100 µM	–	–	> 100 µM	–	–	–	–	–	–	–	–	–	–	–
CO/N=C(\C)c1cccc(Nc2nc3ccccc3c3occc23)c1	26.9 µM	28.5 µM	26.8	27.2 µM	31 µM	36.8	31.3 µM	27.2 µM	26.7 µM	30.8 µM	28.2 µM	25.4 µM	–	–	–	–	–	–	–
CN(C)c1ccc(/C=c2/c3ccccc3n3c2cc(NC(=O)NCCC[N+](C)(C)C)[n+]3C)cc1	> 100 µM	–	> 100	> 100 µM	> 100 µM	> 100	> 100 µM	> 100 µM	> 100 µM	> 100 µM	> 100 µM	> 100 µM	–	–	–	–	–	–	–
CS(=O)(=O)OCCN(CCOS(C)(=O)=O)c1ccc(/C=N/Nc2ncnc3nc[nH]c23)cc1	49.4 µM	–	–	–	> 100 µM	–	–	37.9 µM	45.5 µM	–	–	–	–	–	–	–	–	–	–
O=C(CSc1nc2ccc(I)cc2c(=O)n1Cc1ccccc1)NN1C(=O)c2ccccc2C1=O	15.5 µM	> 100 µM	36.2	43.1 µM	57.3 µM	> 100	50 µM	25.5 µM	> 100 µM	95.1 µM	19.6 µM	> 100 µM	–	–	–	–	–	–	–
Cc1ccc(N=NC(C2=NC(=O)CS2)c2nc3ccccc3[nH]2)cc1 (configuration not stated)	> 100 µM	–	–	–	> 100 µM	–	–	–	–	–	–	–	–	–	–	–	–	–	–
Cc1c2cc[n+](C)cc2c(C)c2c1oc1ccccc12	13 µM	23.8 µM	4.39	4.8 µM	4.27 µM	70.5	–	70.3 µM	31.8 µM	64.7 µM	37.8 µM	21.5 µM	–	–	–	–	–	–	–
COC(=O)NC1C(C)OC(OC2C/C=C(/C)C3C=CC4C(OC5CC(OC6CC(OC7CC(O)C(O)C(C)O7)C(OC7CC(O)C(OC)C(C)O7)C(C)O6)C(O)C(C)O5)C(C)CC(C)C4C3(C)/C(O)=C3\C(=O)OC4(CC(C)C(CO)=CC4/C=C\2C)C3=O)CC1(C)[N+](=O)[O-] (configuration not stated)	> 100 µM	> 100 µM	89.5	> 100 µM	> 100 µM	> 100	25 µM	–	7.08 µM	19.6 µM	> 100 µM	> 100 µM	–	–	–	–	–	–	–
CCSc1nc(-c2cccs2)nc2ccc(I)cc12	> 100 µM	> 100 µM	> 100	–	> 100 µM	> 100	6.88 µM	> 100 µM	> 100 µM	> 100 µM	> 100 µM	> 100 µM	–	–	–	–	–	–	–
CCCCCCCN(CCCCCCC)CC(O)c1cc2ccccc2c2cc(Br)ccc12 (configuration not stated)	> 100 µM	> 100 µM	–	–	> 100 µM	48	> 100 µM	–	> 100 µM	38.8 µM	> 100 µM	> 100 µM	–	–	–	–	–	–	–
Cc1[nH]n(-c2ccccc2)c(=O)c1C(N(CCc1ccccc1)C1=NCC(C)S1)(C(F)(F)F)C(F)(F)F (configuration not stated)	32.3 µM	45.7 µM	49.1	88.4 µM	> 100 µM	> 100	43.1 µM	–	34.9 µM	> 100 µM	84.9 µM	> 100 µM	–	–	–	–	–	–	–
COC(=O)c1ccccc1C1=C([N+](=O)[O-])C(c2cccc(Br)c2)C(C#N)=C(N)O1 (configuration not stated)	> 100 µM	> 100 µM	–	56.9 µM	> 100 µM	–	84.6 µM	41.9 µM	63.2 µM	> 100 µM	> 100 µM	57.4 µM	–	–	–	–	–	–	–
COc1cc([N+](=O)[O-])ccc1NC(=O)c1cccc([N+](=O)[O-])c1O	75.2 µM	–	–	–	> 100 µM	–	–	–	–	–	–	–	–	–	–	–	–	–	–
CCc1ccc2c(c1)C(=O)c1c-2n(CCCN)c(=O)c2cc([N+](=O)[O-])ccc12	3.01 µM	–	3.29	–	2.42 µM	1.6	2.91 µM	–	–	2.05 µM	–	3 µM	1.6	1.68	1.17	0.362	1.28	0.775	1.56
N=C(N)SCc1cccc([N+](=O)[O-])c1	68.3 µM	–	–	–	–	> 83.8	–	61.4 µM	–	–	–	–	–	–	–	–	–	–	–
CC1(C=O)CCC23COC4(CCC5C6(C)CCC(OC7OCC(OC8OC(CO)C(O)C(OC9OC(CO)C(O)C(O)C9O)C8OC8OCC(O)C(O)C8O)C(O)C7OC7OC(CO)C(O)C(O)C7O)C(C)(C)C6CCC5(C)C4(C)CC2O)C3C1 (configuration not stated)	2.63 µM	1.81 µM	3.06	2.99 µM	1.09 µM	2.07	3.36 µM	–	2.43 µM	2.77 µM	2.67 µM	–	–	–	–	–	–	–	–
CN(C)CCCN1c2ccc([N+](=O)[O-])cc2CCc2cc([N+](=O)[O-])ccc21	30.6 µM and 37.8 µM	27.2 µM and 27 µM	29.2	34.4 µM and 35.6 µM	32 µM and 29.1 µM	31.2	32.1 µM and 36.3 µM	19.9 µM and 25.6 µM	24.5 µM and 27.5 µM	30.2 µM and 33 µM	31.3 µM and 27 µM	26.5 µM and 29.5 µM	–	–	–	–	–	–	–
c1ccc([P+](c2ccccc2)(c2ccccc2)c2ccc(-c3ccc([P+](c4ccccc4)(c4ccccc4)c4ccccc4)cc3)cc2)cc1	> 100 µM	92.6 µM	> 100	> 100 µM	> 100 µM	> 100	> 100 µM	> 100 µM	> 100 µM	> 100 µM	73.9 µM	84.5 µM	–	–	–	–	–	–	–
C[n+]1c2ccccc2c(CNC(CS)C(=O)O)c2ccccc21 (configuration not stated)	35.8 µM	–	–	–	> 100 µM	–	–	59.8 µM	> 100 µM	–	–	–	–	–	–	–	–	–	–
